Experimental data as given in ChEMBL document CHEMBL3639325, “Fused tricyclic dual inhibitors of CDK 4/6 and FLT3” (2014).

Tests used:
[1] = biological target: T1, Receptor-type tyrosine-protein kinase FLT3 (Homo sapiens, UniProt P36888); experiment: Kinase Assay: The FLT3 inhibitory activity of the CDK4/6-FLT3 inhibitors was determined with a HTRF kinase assay. The FLT3 enzyme (GST-FLT3 fusion) was purchased from Carna Biosciences. An ULight-labeled synthetic peptide derived from human Janus kinase 1 (aa1015-1027, ULight-JAK1, PerkinElmer) was utilized as the phosphoacceptor substrate. The assay was conducted in a 384-well white OptiPlate (PerkinElmer). The 20 μL reaction mixture contained 50 nM ULight-JAK1, 116 μM ATP, 0.0385 ng/μL FLT3 and dilutions of test compounds in the kinase buffer (50 mM Hepes, pH 7.6, 1 mM EGTA, 10 mM MgCl2, 2 mM DTT, and 0.005% Tween 20). The reaction was allowed to proceed for 1 hour at room temperature and was stopped by adding 20 μL of 10 mM EDTA, 2 nM LANCE Eu-W1024 anti-phospho-tyrosine antibody in LANCE detection buffer (PerkinElmer). The plates were incubated at room temperature for 2 hours after addition of detection reagents and then read on an Envision multimode reader (PerkinElmer).
T1 sequence (P36888 whole entry): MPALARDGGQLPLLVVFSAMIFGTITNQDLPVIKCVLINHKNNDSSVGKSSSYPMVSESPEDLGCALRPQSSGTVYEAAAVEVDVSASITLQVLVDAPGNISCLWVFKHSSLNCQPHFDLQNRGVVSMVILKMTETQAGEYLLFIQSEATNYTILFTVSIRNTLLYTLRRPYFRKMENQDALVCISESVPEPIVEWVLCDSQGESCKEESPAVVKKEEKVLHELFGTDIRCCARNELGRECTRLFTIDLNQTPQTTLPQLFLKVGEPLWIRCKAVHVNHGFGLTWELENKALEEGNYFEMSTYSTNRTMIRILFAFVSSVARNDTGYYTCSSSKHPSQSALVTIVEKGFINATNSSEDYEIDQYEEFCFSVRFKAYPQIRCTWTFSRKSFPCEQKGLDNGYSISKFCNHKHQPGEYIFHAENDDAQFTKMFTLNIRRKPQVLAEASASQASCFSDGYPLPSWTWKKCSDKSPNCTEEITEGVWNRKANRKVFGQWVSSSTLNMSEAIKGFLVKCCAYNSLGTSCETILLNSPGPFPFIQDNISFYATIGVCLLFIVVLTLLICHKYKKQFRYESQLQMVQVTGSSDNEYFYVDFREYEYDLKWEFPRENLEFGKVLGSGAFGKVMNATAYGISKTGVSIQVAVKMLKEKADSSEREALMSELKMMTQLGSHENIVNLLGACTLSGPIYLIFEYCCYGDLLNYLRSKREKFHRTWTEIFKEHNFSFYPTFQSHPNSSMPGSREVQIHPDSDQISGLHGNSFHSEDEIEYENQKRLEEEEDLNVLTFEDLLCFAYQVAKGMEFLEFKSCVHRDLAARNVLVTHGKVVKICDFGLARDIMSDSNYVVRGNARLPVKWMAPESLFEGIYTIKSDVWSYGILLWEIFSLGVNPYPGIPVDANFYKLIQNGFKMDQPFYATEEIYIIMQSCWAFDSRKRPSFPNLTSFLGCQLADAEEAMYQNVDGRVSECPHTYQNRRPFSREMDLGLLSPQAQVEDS

[2] = biological target: Cyclin-dependent kinase 4 (Homo sapiens, UniProt P11802); experiment: Kinase Assay: The CDK4 and CDK1 inhibitory activity of the CDK4/6-FLT3 inhibitors was determined with a filtration kinase assay. The compounds, kinase and substrate diluted in the kinase buffer (20 mM Tris, pH7.4, 50 mM NaCl, 1 mM DTT, 0.1% BSA) were sequentially added to a 96-well Multiscreen HTS filtration plate (Millipore). The final 100 μL reaction mixture in each well contained 0.3 μg of CDK4/Cyclin D1 or CDK1/Cyclin B (Cell Signaling Technology), 1 μg of Rb fragment (aa773-928, Millipore) for the CDK4 assay or 5 μg of histone H1 for the CDK1 assay and 1 μCi of [33P]-ATP. The mixture was incubated at room temperature for 1 hour. The proteins in the reaction were then precipitated and washed with cold TCA solution using an aspiration/filtration vacuum system. The plates were dried at room temperature, and the retained radioactivity was measured by scintillation counting.
Sequence of Cyclin-dependent kinase 4 (P11802 whole entry, the tested form may be a part): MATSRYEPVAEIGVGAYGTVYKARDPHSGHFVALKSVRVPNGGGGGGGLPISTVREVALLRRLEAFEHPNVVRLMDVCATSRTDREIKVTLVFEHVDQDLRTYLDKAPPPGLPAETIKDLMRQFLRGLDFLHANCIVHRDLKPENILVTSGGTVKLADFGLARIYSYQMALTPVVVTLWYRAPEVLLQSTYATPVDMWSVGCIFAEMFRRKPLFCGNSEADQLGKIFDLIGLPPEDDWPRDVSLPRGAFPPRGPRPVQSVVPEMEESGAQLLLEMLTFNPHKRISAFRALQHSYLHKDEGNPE

- IC50 [1]: 2.9 nM
- IC50 [2]: 19.2 nM
Compound: C[C@H]1CC[C@H](n2c3cnccc3c3cnc(Nc4ccc5c(n4)C(O)CN(CCO)C5)nc32)CC1 (some centres not stated)
